From PMC9186362, “Design and biological evaluation of substituted 5,7-dihydro-6H-indolo[2,3-c]quinolin-6-one as novel selective Haspin inhibitors” (Journal of Enzyme Inhibition and Medicinal Chemistry, 2022)

Tests used:
Assay in all cases: LanthaScreen Binding - Eu-anti-GST
Details in all cases: read-out: Percentage of inhibition
[1] = target: T1, MAP3K14 (NIK) (Homo sapiens, UniProt Q99558)
T1 construct: purchased Life Technologies (SelectScreen service)
Description: (§1) We further evaluated the selectivity profile of compound 55 on a larger panel of kinases (SelectScreen Whole Panel, Life Technologies). The inhibition profile of 55, evaluated at 1 μM, is depicted on a dendrogram on Figure 3 where kinases inhibited by a minimum of 80% are shown. A full list of the kinases tested is shown on Table S1 in supplementary information.

[2] = target: TEK (TIE2) Y1108F (Homo sapiens, UniProt Q02763, Y1108F)
Description: as §1

[3] = target: T2, ABL1 Q252H (Homo sapiens, UniProt P00519, Q252H)
T2 construct: purchased Life Technologies (SelectScreen service)
Description: as §1

[4] = target: TESK1 (Homo sapiens, UniProt Q15569)
Description: as §1

[5] = target: T3, MYLK4 (Homo sapiens, UniProt Q86YV6)
T3 construct: purchased Life Technologies (SelectScreen Whole Panel)
Description: as §1

[6] = target: T4, CDC7/DBF4 (Homo sapiens, UniProt O00311)
T4 construct: purchased Life Technologies (SelectScreen service)
Description: as §1

[7] = target: T5, BRAF V599E (Homo sapiens, UniProt P15056, V600E)
T5 construct: purchased Life Technologies
Description: as §1

[8] = target: T6, KIT D820E (Homo sapiens, UniProt P10721, D820E)
T6 construct: purchased Life Technologies (SelectScreen service)
Description: as §1

[9] = target: FGFR3 K650M (Homo sapiens, UniProt P22607, K650M)
Description: as §1

[10] = target: TLK1 (Homo sapiens, UniProt Q9UKI8)
Description: as §1

[11] = target: CDK9 (Inactive) (Homo sapiens, UniProt P50750)
Chain of CDK9 (Inactive) (P50750 whole entry): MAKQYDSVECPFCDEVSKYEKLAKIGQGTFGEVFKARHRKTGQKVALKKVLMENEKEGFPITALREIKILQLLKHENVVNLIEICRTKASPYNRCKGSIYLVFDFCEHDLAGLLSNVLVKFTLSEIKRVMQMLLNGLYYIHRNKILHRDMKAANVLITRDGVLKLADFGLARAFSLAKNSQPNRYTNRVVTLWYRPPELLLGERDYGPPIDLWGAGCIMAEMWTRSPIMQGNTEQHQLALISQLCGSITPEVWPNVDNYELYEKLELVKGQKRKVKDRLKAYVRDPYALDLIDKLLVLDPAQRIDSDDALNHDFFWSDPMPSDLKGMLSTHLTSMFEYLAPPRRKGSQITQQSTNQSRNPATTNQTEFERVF
Description: as §1

[12] = target: T7, ACVR1 (ALK2) (Homo sapiens, UniProt Q04771)
T7 construct: purchased Life Technologies (SelectScreen Whole Panel service)
Description: as §1

[13] = target: T8, KIT Y823D (Homo sapiens, UniProt P10721, Y823D)
T8 construct: purchased Life Technologies
Description: as §1

[14] = target: T9, MLK4 (Homo sapiens, UniProt Q5TCX8)
T9 construct: purchased Life Technologies (SelectScreen Whole Panel service)
Description: as §1

[15] = target: T10, MAP3K3 (MEKK3) (Homo sapiens, UniProt Q99759)
T10 construct: purchased Life Technologies (SelectScreen service)
Description: as §1

[16] = target: T11, ERN1 (Homo sapiens, UniProt O75460)
T11 construct: purchased Life Technologies (SelectScreen Whole Panel service)
Description: as §1

[17] = target: SIK3 (Homo sapiens, UniProt Q9Y2K2)
Description: as §1

[18] = target: T12, CDK11/cyclin C (Homo sapiens, UniProt Q9BWU1)
T12 construct: purchased Life Technologies
Description: as §1

[19] = target: T13, ALK C1156Y (Homo sapiens, UniProt Q9UM73, C1156Y)
T13 construct: purchased Life Technologies
Description: as §1

[20] = target: T14, CASK (Homo sapiens, UniProt O14936)
T14 construct: purchased Life Technologies (SelectScreen Whole Panel)
Description: as §1

[21] = target: CDK2/cyclin E1 (Homo sapiens, UniProt P24941)
Description: as §1

[22] = target: T15, CDK14 (PFTK1)/cyclin Y (Homo sapiens, UniProt O94921)
T15 construct: purchased Life Technologies
T15 sequence (O94921 whole entry): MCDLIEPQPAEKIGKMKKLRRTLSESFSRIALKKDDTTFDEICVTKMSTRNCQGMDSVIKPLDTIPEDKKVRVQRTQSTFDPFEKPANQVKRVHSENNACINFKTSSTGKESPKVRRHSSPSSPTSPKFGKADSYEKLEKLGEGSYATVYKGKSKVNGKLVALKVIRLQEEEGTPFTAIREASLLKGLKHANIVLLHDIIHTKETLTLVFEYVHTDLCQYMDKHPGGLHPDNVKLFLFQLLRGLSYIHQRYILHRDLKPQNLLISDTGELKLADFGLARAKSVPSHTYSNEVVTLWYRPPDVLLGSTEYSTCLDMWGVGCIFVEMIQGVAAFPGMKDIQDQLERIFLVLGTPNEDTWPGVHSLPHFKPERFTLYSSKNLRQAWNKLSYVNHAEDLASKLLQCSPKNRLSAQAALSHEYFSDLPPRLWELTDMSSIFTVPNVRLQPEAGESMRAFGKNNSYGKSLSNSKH
T15 sequence (Q8ND76 whole entry partner): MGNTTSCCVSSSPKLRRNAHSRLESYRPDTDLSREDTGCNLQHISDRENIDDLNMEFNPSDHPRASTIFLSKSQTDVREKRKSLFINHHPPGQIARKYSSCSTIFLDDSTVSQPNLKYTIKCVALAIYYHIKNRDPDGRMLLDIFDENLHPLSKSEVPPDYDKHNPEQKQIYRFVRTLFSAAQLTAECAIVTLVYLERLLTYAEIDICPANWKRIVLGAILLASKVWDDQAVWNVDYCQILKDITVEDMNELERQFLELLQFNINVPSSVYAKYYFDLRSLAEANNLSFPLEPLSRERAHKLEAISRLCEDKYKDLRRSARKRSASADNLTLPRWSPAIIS
Description: as §1

[23] = target: CDK11 (Inactive) (Homo sapiens, UniProt Q9BWU1)
Description: as §1

[24] = target: T16, CAMK2G (CaMKII gamma) (Homo sapiens, UniProt Q13555)
T16 construct: purchased Life Technologies
Description: as §1

[25] = target: T17, ALK F1174L (Homo sapiens, UniProt Q9UM73, F1174L)
T17 construct: purchased Life Technologies
Description: as §1

[26] = target: T18, AAK1 (Homo sapiens, UniProt Q2M2I8)
T18 construct: purchased Life Technologies
T18 sequence (Q2M2I8 whole entry): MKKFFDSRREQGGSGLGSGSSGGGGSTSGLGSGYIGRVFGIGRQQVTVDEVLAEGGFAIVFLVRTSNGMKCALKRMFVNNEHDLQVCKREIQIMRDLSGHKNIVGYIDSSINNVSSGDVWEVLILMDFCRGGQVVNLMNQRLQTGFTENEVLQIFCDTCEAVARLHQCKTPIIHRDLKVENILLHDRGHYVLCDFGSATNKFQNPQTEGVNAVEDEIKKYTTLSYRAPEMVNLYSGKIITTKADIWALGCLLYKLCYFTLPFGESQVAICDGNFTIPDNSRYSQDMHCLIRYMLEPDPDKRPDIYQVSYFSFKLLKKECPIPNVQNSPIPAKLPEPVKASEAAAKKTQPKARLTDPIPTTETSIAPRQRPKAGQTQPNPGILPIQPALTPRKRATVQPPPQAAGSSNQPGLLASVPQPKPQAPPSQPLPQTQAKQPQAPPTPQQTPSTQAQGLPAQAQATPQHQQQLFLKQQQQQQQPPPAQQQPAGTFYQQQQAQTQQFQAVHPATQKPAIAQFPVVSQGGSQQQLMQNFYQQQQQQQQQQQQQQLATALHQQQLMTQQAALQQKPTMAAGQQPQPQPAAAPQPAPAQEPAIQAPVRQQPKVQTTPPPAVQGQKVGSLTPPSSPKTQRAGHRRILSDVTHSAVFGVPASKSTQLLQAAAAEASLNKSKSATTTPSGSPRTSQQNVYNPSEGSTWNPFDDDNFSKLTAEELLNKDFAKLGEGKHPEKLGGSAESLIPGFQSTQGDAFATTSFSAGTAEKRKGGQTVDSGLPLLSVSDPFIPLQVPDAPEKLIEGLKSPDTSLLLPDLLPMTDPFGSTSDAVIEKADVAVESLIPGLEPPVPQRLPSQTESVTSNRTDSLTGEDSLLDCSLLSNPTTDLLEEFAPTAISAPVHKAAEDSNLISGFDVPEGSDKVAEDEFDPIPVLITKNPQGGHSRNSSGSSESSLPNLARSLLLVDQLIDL
Description: as §1

[27] = target: T19, DDR2 N456S (Homo sapiens, UniProt Q16832, N456S)
T19 construct: purchased Life Technologies
Description: as §1

[28] = target: T20, RET V804M (Homo sapiens, UniProt P07949, V804M)
T20 construct: purchased Life Technologies (SelectScreen service)
Description: as §1

[29] = target: WNK2 (Homo sapiens, UniProt Q9Y3S1)
Chain of WNK2 (Q9Y3S1 whole entry): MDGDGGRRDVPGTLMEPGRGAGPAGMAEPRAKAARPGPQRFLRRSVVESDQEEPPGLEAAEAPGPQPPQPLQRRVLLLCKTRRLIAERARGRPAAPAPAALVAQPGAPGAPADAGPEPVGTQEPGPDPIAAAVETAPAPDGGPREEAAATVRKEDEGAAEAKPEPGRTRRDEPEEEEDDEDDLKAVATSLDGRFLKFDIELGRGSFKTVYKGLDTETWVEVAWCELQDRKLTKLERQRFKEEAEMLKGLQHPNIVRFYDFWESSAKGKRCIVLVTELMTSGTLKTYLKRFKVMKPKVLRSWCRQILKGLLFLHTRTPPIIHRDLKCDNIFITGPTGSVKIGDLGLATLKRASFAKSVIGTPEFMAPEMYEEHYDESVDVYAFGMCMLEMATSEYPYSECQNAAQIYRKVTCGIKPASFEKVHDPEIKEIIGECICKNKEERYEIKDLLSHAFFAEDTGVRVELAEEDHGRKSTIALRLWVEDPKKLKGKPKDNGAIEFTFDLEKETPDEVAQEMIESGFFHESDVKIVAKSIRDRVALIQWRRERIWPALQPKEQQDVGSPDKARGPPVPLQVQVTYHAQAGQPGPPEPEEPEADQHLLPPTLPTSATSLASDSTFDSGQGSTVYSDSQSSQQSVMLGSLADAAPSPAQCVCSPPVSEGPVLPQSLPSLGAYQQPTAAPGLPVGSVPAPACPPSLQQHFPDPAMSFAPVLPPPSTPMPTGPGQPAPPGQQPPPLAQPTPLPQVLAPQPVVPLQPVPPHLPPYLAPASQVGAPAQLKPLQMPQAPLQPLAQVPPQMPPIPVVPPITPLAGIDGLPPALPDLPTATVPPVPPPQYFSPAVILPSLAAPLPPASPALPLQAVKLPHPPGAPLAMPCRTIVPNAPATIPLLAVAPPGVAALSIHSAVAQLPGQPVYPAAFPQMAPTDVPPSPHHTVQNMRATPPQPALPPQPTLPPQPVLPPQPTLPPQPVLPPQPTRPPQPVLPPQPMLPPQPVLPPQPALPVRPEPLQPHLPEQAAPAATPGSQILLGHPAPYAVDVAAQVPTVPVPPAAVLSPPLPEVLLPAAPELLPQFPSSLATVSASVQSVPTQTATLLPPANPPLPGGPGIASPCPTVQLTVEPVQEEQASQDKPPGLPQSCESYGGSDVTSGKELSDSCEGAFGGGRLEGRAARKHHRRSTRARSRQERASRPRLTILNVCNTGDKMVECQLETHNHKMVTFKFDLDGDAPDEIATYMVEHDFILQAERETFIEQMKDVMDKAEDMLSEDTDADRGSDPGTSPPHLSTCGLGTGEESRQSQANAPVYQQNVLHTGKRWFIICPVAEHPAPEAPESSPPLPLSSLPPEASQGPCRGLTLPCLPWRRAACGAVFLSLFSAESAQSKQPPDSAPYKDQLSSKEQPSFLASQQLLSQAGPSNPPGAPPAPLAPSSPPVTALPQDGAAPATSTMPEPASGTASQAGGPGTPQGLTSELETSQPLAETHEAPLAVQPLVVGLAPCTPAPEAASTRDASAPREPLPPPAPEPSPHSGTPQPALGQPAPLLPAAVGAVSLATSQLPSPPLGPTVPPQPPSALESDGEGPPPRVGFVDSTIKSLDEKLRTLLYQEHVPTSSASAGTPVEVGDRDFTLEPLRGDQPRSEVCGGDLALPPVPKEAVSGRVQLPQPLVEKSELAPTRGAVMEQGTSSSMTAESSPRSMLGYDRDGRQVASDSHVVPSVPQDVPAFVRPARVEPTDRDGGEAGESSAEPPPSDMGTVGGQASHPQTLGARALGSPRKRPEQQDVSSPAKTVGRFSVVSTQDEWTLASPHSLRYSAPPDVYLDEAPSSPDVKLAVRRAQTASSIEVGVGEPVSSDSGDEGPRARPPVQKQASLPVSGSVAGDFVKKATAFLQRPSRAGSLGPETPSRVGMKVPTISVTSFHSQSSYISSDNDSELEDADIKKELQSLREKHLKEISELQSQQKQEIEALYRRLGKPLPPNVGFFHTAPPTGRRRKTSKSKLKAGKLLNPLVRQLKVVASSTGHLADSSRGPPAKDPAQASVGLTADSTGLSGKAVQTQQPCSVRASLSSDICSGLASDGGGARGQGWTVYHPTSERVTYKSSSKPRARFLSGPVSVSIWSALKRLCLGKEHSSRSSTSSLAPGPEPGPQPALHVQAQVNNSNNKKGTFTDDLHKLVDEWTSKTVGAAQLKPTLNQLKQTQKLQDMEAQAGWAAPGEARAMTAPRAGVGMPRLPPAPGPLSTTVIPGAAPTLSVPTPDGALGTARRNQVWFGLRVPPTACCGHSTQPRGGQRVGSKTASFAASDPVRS
Description: as §1

[30] = target: T21, ACVR2A (Homo sapiens, UniProt P27037)
T21 construct: purchased Life Technologies (SelectScreen)
T21 sequence (P27037 20-513): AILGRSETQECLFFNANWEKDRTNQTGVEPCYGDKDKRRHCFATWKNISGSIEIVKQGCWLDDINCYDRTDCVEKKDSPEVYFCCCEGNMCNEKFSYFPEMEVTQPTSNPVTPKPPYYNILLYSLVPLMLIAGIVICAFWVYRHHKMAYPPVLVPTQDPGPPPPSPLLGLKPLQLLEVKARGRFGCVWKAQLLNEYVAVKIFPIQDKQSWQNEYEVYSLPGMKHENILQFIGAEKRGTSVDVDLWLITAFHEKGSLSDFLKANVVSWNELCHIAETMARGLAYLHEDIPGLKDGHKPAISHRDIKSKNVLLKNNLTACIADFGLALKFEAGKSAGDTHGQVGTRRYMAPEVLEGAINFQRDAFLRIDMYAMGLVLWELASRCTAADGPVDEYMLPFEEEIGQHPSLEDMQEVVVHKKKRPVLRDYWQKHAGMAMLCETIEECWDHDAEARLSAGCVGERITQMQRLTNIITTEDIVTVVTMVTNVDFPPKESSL
Description: as §1

[31] = target: ADCK3 (Homo sapiens, UniProt Q8NI60)
Description: as §1

[32] = target: T22, ULK2 (Homo sapiens, UniProt Q8IYT8)
T22 construct: purchased Life Technologies (SelectScreen service)
Description: as §1

[33] = target: T23, DDR2 (Homo sapiens, UniProt Q16832)
T23 construct: purchased Life Technologies
Description: as §1

[34] = target: T24, NLK (Homo sapiens, UniProt Q9UBE8)
T24 construct: purchased Life Technologies (SelectScreen Whole Panel service)
Description: as §1

[35] = target: T25, GRK1 (Homo sapiens, UniProt Q15835)
T25 construct: purchased Life Technologies (SelectScreen Whole Panel)
Description: as §1

[36] = target: T26, CDK2/cyclin A1 (Homo sapiens, UniProt P24941)
T26 construct: purchased Life Technologies (SelectScreen Whole Panel service)
Description: as §1

[37] = target: T27, MAP3K2 (MEKK2) (Homo sapiens, UniProt Q9Y2U5)
T27 construct: purchased Life Technologies
Description: as §1

[38] = target: MAP4K3 (GLK) (Homo sapiens, UniProt Q8IVH8)
Description: as §1

[39] = target: HUNK (Homo sapiens, UniProt P57058)
Description: as §1

[40] = target: T28, WEE1 (Homo sapiens, UniProt P30291)
T28 construct: purchased Life Technologies (SelectScreen Whole Panel service)
Description: as §1

With `COc1ccc2[nH]c3c(=O)[nH]c4ccc(O)cc4c3c2c1` [Compound 55, 2-Hydroxy-10-methoxy-5,7-dihydro-6H-indolo[2,3-c]quinolin-6-one] the inhibition at 1 µM [1] was 79%, the inhibition at 1 µM [2] was 6% and the inhibition at 1 µM [3] was 77%. It also gave an inhibition at 1 µM [4] of 15%, an inhibition at 1 µM [5] of 111% and an inhibition at 1 µM [6] of 83%. The inhibition at 1 µM [7] was 6%, the inhibition at 1 µM [8] was 24% and the inhibition at 1 µM [9] was 67%. For the same compound, the inhibition at 1 µM [10] was 68%, the inhibition at 1 µM [11] was 59% and the inhibition at 1 µM [12] was 15%. The inhibition at 1 µM [13] was 30%, the inhibition at 1 µM [14] was 18% and the inhibition at 1 µM [15] was 71%. It also gave an inhibition at 1 µM [16] of 16%, an inhibition at 1 µM [17] of 7% and an inhibition at 1 µM [18] of 37%. For the same compound, the inhibition at 1 µM [19] was 34%, the inhibition at 1 µM [20] was -3% and the inhibition at 1 µM [21] was 64%. For the same compound, the inhibition at 1 µM [22] was 35%, the inhibition at 1 µM [23] was 13% and the inhibition at 1 µM [24] was 30%. It also gave an inhibition at 1 µM [25] of 33%, an inhibition at 1 µM [26] of 97% and an inhibition at 1 µM [27] of 41%. It also gave an inhibition at 1 µM [28] of 88%, an inhibition at 1 µM [29] of 14% and an inhibition at 1 µM [30] of 8%. The inhibition at 1 µM [31] was 60%, the inhibition at 1 µM [32] was 25% and the inhibition at 1 µM [33] was 3%. For the same compound, the inhibition at 1 µM [34] was 15%, the inhibition at 1 µM [35] was 50% and the inhibition at 1 µM [36] was 43%. It also gave an inhibition at 1 µM [37] of 42%, an inhibition at 1 µM [38] of 59% and an inhibition at 1 µM [39] of 20%. The inhibition at 1 µM [40] was 18%.
